Series [1] has as its system Influenza A/Victoria/3/75. More on the design: species or system mice. Particulars: mouse, in vivo.
For series [2], the system named is Influenza B/Victoria/1/87. Description: Influenza plaque assay in MDCK cell monolayers. Particulars: Influenza B virus, 96 h, read-out: EC50 on Influenza B/Victoria/1/87.
Series [3] concerns Influenza A/Singapore/1/57. The format is in vivo. Also on record: Effectiveness: unit: %. Particulars: A/Singapore/1/57, lungs 1 day post infection; for Effectiveness / Mean Virus Titre (logTCID50/ml): mice.
Series [4] deals with Influenza A/Victoria/3/75. The series is described as follows: Influenza plaque assay in MDCK cell monolayers. The note with it: Influenza A virus, 96 h, read-out: EC50 on Influenza A/Victoria/3/75.
The nature of series [5]: Long duration of action: level of compound in lung tissue after intra-tracheal dosing. The note with it: 0.4 mg/kg intra-tracheal, LC-MS/MS, in parallel with Zanamivir. The format is in vivo, Rodents. How it is done: Rodents are anaesthetised and dosed with compound of interest by the intra-tracheal route at a dose volume of 0.8 ml/kg. The rodent is then held in the vertical position until full recovery is achieved. At different time points, for example, 2, 8, 24 and 48 hours post-dose, levels of compound in the lung tissue are assessed by analytical methods. Any analytical method suitable for detection of this type of compound may-be used. The time at which levels of compound fall below the sensitivity of the analytical techniques identified will determine the residency time of the compound in lung tissue.
The multimeric Compounds No 3, 4 and 20 of the invention were tested in parallel with Zanamivir [Compound (A)] using a dose of 0.4 mg/kg for each compound and assessing the level of compound in the lung tissue after 48 and 168 hours, using LC-MS/MS.

Series [6] relates to B/Harbin/7/95. Description: Inhibition of cytopathic effect (CPE) of influenza virus replication in MDCK cells. Particulars: for EC50 / IC50: Influenza B virus, MDCK; for EC50: read-out: EC50 on Influenza B/Harbin/7/95.
Series [7] has as its system A/Sydney/5/97. Described as above. Particulars: for EC50 / IC50: Influenza A virus, MDCK; for EC50: read-out: EC50 on Influenza A/Sydney/5/97.
Series [8] relates to A/Victoria/3/75. The series is described as above.
The subject of series [9] is Influenza A/WSN/33. The series is described as follows: Influenza plaque assay in MDCK cell monolayers. Particulars: Influenza A virus, 96 h, read-out: EC50 on Influenza A/WSN/33.
Series [10] relates to Influenza A/Victoria/3/75. Also on record: species or system mice. The note with it: mouse, in vivo. This is another data set of the same source.
Where [11] appears, read: CPE results, same protocol as b341, MDCK cells.

In brackets after ≈: the same amount, converted by molar mass. Read-outs that look alike come from different tables or passages of the source.

For the molecule `CC(=O)N[C@H]1[C@H]([C@H](OC(=O)NCCCCCCNC(=O)CN(CCN(CC(=O)NCCCCCCNC(=O)O[C@H](C(O)CO)[C@@H]2OC(C(=O)O)=C[C@H](NC(=N)N)[C@H]2NC(C)=O)CC(=O)NCCCCCCNC(=O)O[C@H](C(O)CO)[C@@H]2OC(C(=O)O)=C[C@H](NC(=N)N)[C@H]2NC(C)=O)CC(=O)NCCCCCCNC(=O)O[C@H](C(O)CO)[C@@H]2OC(C(=O)O)=C[C@H](NC(=N)N)[C@H]2NC(C)=O)C(O)CO)OC(C(=O)O)=C[C@@H]1NC(=N)N` (some centres unmarked) [Compound 3], the “% Effectiveness” value in [1] is given as 59%. Moreover, the “Mean Virus Titre (logTCID50/ml)” value in series [1] came to 4.0 logTCID50/ml; in [3] (0.01 mg/kg) it was 5.55 logTCID50/ml; in series [3] (0.1 mg/kg), 4.70 logTCID50/ml; in series [3] (1 mg/kg) it was 3.78 logTCID50/ml. Besides, the “Number of virus free mice” value in series [1] is reported as 4; in series [3] (0.01 mg/kg), 0; in [3] (0.1 mg/kg) it was 0; in [3] (1 mg/kg) it was 1. Further, the EC50 in [2] came to 0.3 ng/mL (≈ 0.142 nM); in [4] it was 0.1 ng/mL (≈ 0.0472 nM). In addition, the Effectiveness is listed as 68.38 in series [3] (0.01 mg/kg), 95.53 in [3] (0.1 mg/kg) and 99.47 in series [3] (1 mg/kg). For the same molecule, the “level of compound in the lung tissue after 48 and 168 hours” value in [5] is on record as “retained in the lung at much higher concentrations than the monomer Zanamivir (A)”.

`CC(=O)N[C@H]1[C@H]([C@H](OC(=O)NCCCCCCNC(=O)CN(CCN(CC(=O)NCCCCCCNC(=O)O[C@@H]([C@@H]2OC(C(=O)O)=C[C@H](NC(=N)N)[C@H]2NC(C)=O)[C@H](O)CO)CC(=O)NCCCCCCNC(=O)O[C@@H]([C@@H]2OC(C(=O)O)=C[C@H](NC(=N)N)[C@H]2NC(C)=O)[C@H](O)CO)CC(=O)O)[C@H](O)CO)OC(C(=O)O)=C[C@@H]1NC(=N)N.O=C(O)C(F)(F)F` [Compound 14, (19R,20R)-19-((2R,3R,4S)-3-(acetylamino)-4-{[amino (imino)methyl]amino}-6-carboxy-3,4-dihydro-2H-pyran-2-yl)-3,6-bis[2-({6-[({[(1R,2R)-1-((2R,3R,4S)-3-(acetylamino)-4-{[amino(imino)methyl]amino}-6-carboxy-3,4-dihydro-2H-pyran-2-yl)-2,3-dihydroxypropyl]oxy}carbonyl)amino]hexyl}amino)-2-oxoethyl]-20,21-dihydroxy-8,17-dioxo-18-oxa-3,6,9,16-tetraazahenicosan-1-oic acid tris(trifluoroacetate)]: in series [2], the EC50 came out at 6.3 ng/mL.

`CC(=O)N[C@H]1[C@H]([C@H](OC(=O)NCCCCCCNC(=O)COc2c3cc(C(C)(C)C)cc2Cc2cc(C(C)(C)C)cc(c2OCC(=O)NCCCCCCNC(=O)O[C@@H]([C@@H]2OC(C(=O)O)=C[C@H](NC(=N)N)[C@H]2NC(C)=O)[C@H](O)CO)Cc2cc(C(C)(C)C)cc(c2OCC(=O)NCCCCCCNC(=O)O[C@@H]([C@@H]2OC(C(=O)O)=C[C@H](NC(=N)N)[C@H]2NC(C)=O)[C@H](O)CO)Cc2cc(C(C)(C)C)cc(c2OCC(=O)NCCCCCCNC(=O)O[C@@H]([C@@H]2OC(C(=O)O)=C[C@H](NC(=N)N)[C@H]2NC(C)=O)[C@H](O)CO)C3)[C@H](O)CO)OC(C(=O)O)=C[C@@H]1NC(=N)N` [Compound 23]: in series [1], the “% Effectiveness” value is 78.2%, the “Mean Virus Titre (logTCID50/ml)” value is listed as 4.7 logTCID50/ml and the “Number of virus free mice” value is on record as 0. Further, the “EC50 on Influenza B/Harbin/7/95” value in series [6] (setting [11]) is 9.263. Besides, the “EC50 on Influenza A/Sydney/5/97” value in series [7] (setting [11]) is given as 27.714.

Consider `O=Cc1cc(C=O)cc(C=O)c1` [Compound 29], for which the values for the EC50 in series [6] and in [7] were 0.882 ng/mL (≈ 5.44 nM) and 0.089 ng/mL (≈ 0.549 nM), respectively.

As to `CC(=O)N[C@H]1[C@H]([C@H](OC(=O)NCCCCCCN)[C@H](O)CO)OC(C(=O)O)=C[C@@H]1NC(=N)N` [Compound (2) TFA2, 5-acetamido-7-(6-aminohexylcarbamoyloxy)-4-guanidino-2,3,4,5-tetradeoxy-D-glycero-D-galacto-non-2-enopyranosonic acid], the IC50 in series [8] (read-out: IC50 nM) turned out to be 52.7 nM; in series [8] (read-out: IC50 ng/ml) it was 37 ng/mL; in series [6] (read-out: IC50 nM) it was 259 nM; in [6] (read-out: IC50 ng/ml), 182 ng/mL; in series [7] (read-out: IC50 nM) it was 588 nM; in series [7] (read-out: IC50 ng/ml), 413 ng/mL.

As for `CC(=O)N[C@H]1[C@H]([C@H](O)[C@H](O)CO)OC(C(=O)O)=C[C@@H]1NC(=N)N` [Zanamivir, 4-guanidino-2-deoxy-2,3-dehydro-N-acetylneuraminic acid, reference compound], the “% Effectiveness” value in [1] is on record as −43.4%. For the same molecule, the “Number of virus free mice” value in series [1] came to 0; in [3] (0.2 mg/kg), 0; in series [3] (1 mg/kg), 0; in series [3] (5 mg/kg), 1; in [10] it was 0. For the same molecule, the EC50 in [2] is 16 ng/mL (≈ 48.1 nM); in series [4], 3.5 ng/mL (≈ 10.5 nM); in series [6], 14.2 ng/mL (≈ 42.7 nM); in [7], 32.7 ng/mL (≈ 98.3 nM); in series [9], 22.7 ng/mL (≈ 68.3 nM). The Effectiveness in series [3] (0.2 mg/kg) is given as 33.17; in series [3] (1 mg/kg) it was 74.88; in [3] (5 mg/kg), 93.69; in [10] it was 81.76. The “Mean Virus Titre (logTCID50/ml)” value in series [3] (0.2 mg/kg) is on record as 5.60 logTCID50/ml; in series [3] (1 mg/kg) it was 5.18 logTCID50/ml; in [3] (5 mg/kg), 4.58 logTCID50/ml. Further, the IC50 in series [8] (read-out: IC50 nM) was 73.9 nM; in series [8] (read-out: IC50 ng/ml), 24.6 ng/mL; in series [6] (read-out: IC50 nM) it was 31.2 nM; in series [6] (read-out: IC50 ng/ml), 10.4 ng/mL; in series [7] (read-out: IC50 nM) it was 77.7 nM; in series [7] (read-out: IC50 ng/ml), 25.8 ng/mL.

The record behind these values is patent US7205333B2 (priority 2000, dated 2007).
